Experimental data reported in PMC6655611, “The effect of amantadine on an ion channel protein from Chikungunya virus” (PLoS Neglected Tropical Diseases, 2019).

What was measured:
CHIKV 6K (GST-6K) = biological target: T1, CHIKV 6K (GST-6K) (Chikungunya virus strain Senegal 37997, UniProt Q5XXP3); experiment: planar lipid bilayer electrophysiology; also liposome dye release and DLS fusion assay; assay type: biochemical; details: 1 uM amantadine; 2.6 ng/ul GST-6K in DPhPC/cholesterol bilayer, 500 mM KCl, 5 mM MgCl2, 10 mM HEPES pH 7.4, 24-25 C, -70 and +70 mV; direct binding not measured
T1 construct: mature 6K cut from structural polyprotein C-E3-E2-6K-E1; N-terminal GST tag kept (pGEX-6P2), E. coli Rosetta pLysS

SEC = biological target: the molecule itself; experiment: SEC

NC12CC3CC(CC(C3)C1)C2 [amantadine]
planar lipid bilayer electrophysiology; also liposome dye release and DLS fusion (CHIKV 6K (GST-6K)): This clearly indicates that amantadine abolishes the ion channel activity of CHIKV 6K

B1: GST-6K (fusion of Chikungunya virus 6K with Glutathione S Transferase) (natural protein)
chain: ATYYEAAAYLWNEQQPLFWLQALIPLAALIVLCNCLKLLPCCCKTLAFLAVMSIGAHTVSA
notes: Monomer MW printed as 33.5 kDa; The GST tag was not removed; also called CHIKV 6K; recombinant GST-6K; not shown: GST, N-terminal, kept
stoichiometry N (SEC): 6
